# US6476009B1, “Method for control and treatment of acquired immunodeficiency syndrome (AIDS)” (priority 1985, dated 2002)
# “And” between values parts separate entries of the source, which are not always exact repeats. Equal values may be shown once.
# What was measured:
# HTLV-III = experiment: Replication of HTLV-III in H9 cells (RT activity readout); type: cell-based; conditions: Human immunodeficiency virus 1, 144 h
# Method: HTLV-III Infection of H9 Cells. H9 cells constitute a human cell line that can be chronically infected with HTLV-III virus. (Science 1984; 224: 497-500). H9 cells were treated with polybrene (2 μg/ml) for 30 min. at 37° C., washed free of polybrene and infected with 2×10^8 HTLV-III virus particles per 4×10^5 H9 cells. […] The cultures were analyzed for HTLV-III reverse transcriptase activity as described above.
# The effect of foscarnet on the replication of HTLV-III in H9 cells was determined as a function of both foscarnet concentration and time of incubation.
# cytomegalovirus (CMV) = experiment: Clinical effect of infusion in patients with severe herpesvirus infections; type: in vivo; conditions: intravenous constant infusion 1-4 weeks, severe herpesvirus infections mainly CMV
# [1] = molecular target: HTLV-III reverse transcriptase (Human immunodeficiency virus type 1 group M subtype B, UniProt P03366); experiment: Purified HTLV-III reverse transcriptase assay; type: biochemical
# Method: Source of HTLV-III Reverse Transcriptase and Assay Conditions. HTLV-III reverse transcriptase used in these studies was purified by sequential chromatography on DEAE, cellulose, phosphocellulose and hydroxyapatite. The purified anzyme was stored in 50 mM Tris-HC1 (pH 7.5), 1 mM dithiothreitol (DTT), 0.01% Triton X-100 and 20% glycerol. Reverse transcriptase assays were carried out in a reaction mixture (50 μl)containing 50 mM Tris-HC1 (pH 7.5), 5 mM DTT, 100mM potassium chloride, 0.01% Triton X-100 or NP40, 10 μg/ml (dT)15.(A)n as template primer and/^3H/deoxythymidine triphosphate (/^3H/-dTTP). The reaction mixture was incubated for 1 hour at 37°, and the reaction was stopped by the addition of 50 μg of yeast tRNA and 2 ml of 10% solution of trichloroacetic acid (TCA) containing 1 mM sodium pyrophosphate. The samples were filtered on millipore filters (0.45 μm), washed first with 5% TCA solution (5 times) and then with 2 ml of 70% ethanol. The filters were dried under a heat lamp, scintillation fluid was added and the radioactivity counted in a β-scintillation counter.
# The effect of foscarnet on purified HTLV-III reverse transcriptase (RT) was assayed as a function of drug concentration.
# Uninfected H9 cells = experiment: Growth inhibition of uninfected H9 cells; type: cell-based; conditions: Homo sapiens, 750 μM foscarnet
# [2] = test system: labial and genital herpes; experiment: Clinical evaluation of topical formulation against labial and genital herpes; type: in vivo
# variety of cell types = experiment: Cell growth inhibition in a variety of cell types; type: cell-based
# [3] = Steady-state serum level in patients on constant intravenous infusion; conditions: constant intravenous infusion for 1-4 weeks, most cases
# Method: These patients were given foscarnet intravenously by constant infusion for 1-4 weeks and, at steady state, serum levels of foscarnet reached in most cases were 300-450 μM (100-150 μg/ml).
compound,measurement,setting,value
"O=C(O)P(=O)(O)O [foscarnet, trisodium phosphonoformate hexahydrate]",inhibition at 50 µM,"HTLV-III; 50 μM foscarnet, 6 days of incubation",50%
same,inhibition at 300 µM,"HTLV-III; 300 μM foscarnet, six days of incubation",> 95%
same,clinical effect in treated patients,cytomegalovirus (CMV),clear indications of a beneficial effect
same,IC50,[1],100 to 2000 nM
same,mode of inhibition of reverse transcriptase,[1]; with respect to substrate and template,noncompetitive with respect to substrate and uncompetitive with respect to template
same,inhibition at 750 µM,Uninfected H9 cells,< 50%
same,clinical activity and tolerability,[2],active and well tolerated
same,cell growth after removal of the drug,variety of cell types; stationary cells treated with 10 mM foscarnet,normal cell growth can be seen
same,reversibility of cell growth inhibition,variety of cell types; variety of cell types,reversible
same,IC50,"variety of cell types; variety of cell types, read-out: concentration inhibiting cell growth by 50%",~1 mM
same,steady state serum level,[3],300-450 μM and 100-150 μg/ml
